ChEMBL document CHEMBL4477217, “Discovery of 3-(3-(4-(1-Aminocyclobutyl)phenyl)-5-phenyl-3H-imidazo[4,5-b]pyridin-2-yl)pyridin-2-amine (ARQ 092): An Orally Bioavailable, Selective, and Potent Allosteric AKT Inhibitor” (J Med Chem, 2016)
Values belong to the molecule of their own block, whether it stands above or below them.

Experiments:
[1] = target: RAC-gamma serine/threonine-protein kinase (Homo sapiens, UniProt Q9Y243); set-up: species or system Sf9
[2] = target: RAC-beta serine/threonine-protein kinase (Homo sapiens, UniProt P31751); set-up: species or system Sf9
Sequence of RAC-beta serine/threonine-protein kinase (P31751 whole entry): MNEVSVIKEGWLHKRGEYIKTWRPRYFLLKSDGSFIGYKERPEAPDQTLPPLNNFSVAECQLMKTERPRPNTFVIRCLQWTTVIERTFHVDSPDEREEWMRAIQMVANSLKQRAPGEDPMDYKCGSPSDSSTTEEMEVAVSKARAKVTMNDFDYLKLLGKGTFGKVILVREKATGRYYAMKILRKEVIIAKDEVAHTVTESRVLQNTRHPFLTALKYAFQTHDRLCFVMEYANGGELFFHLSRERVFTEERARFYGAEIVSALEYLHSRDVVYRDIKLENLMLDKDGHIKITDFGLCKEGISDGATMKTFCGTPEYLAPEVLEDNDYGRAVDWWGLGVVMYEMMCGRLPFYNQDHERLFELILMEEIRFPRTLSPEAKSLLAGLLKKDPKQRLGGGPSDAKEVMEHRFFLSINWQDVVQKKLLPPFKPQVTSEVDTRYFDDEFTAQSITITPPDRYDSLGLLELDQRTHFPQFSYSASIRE

[3] = in vitro; settings: human, liver microsomes
[4] = Solubility of the compound; format: physicochemical
[5] = in vitro; settings: male, CD-1, mouse, liver microsomes
[6] = in vitro; settings: female, CD-1, mouse, liver microsomes
[7] = in vitro; settings: male, Beagle, dog, liver microsomes
[8] = in vitro; settings: female, Beagle, dog, liver microsomes
[9] = test system: Mus musculus; experiment: In vivo inhibition of AKT1 phosphorylation at Ser473 in human AN3CA cells xenografted in NCr-M nude mouse at 100 mg/kg, po after 8 hrs by Western blot analysis; format: functional; settings: AN3-CA
[10] = Drug uptake in NCr-M nude mouse tumor xenografted with human AN3CA cells at 200 mg/kg, po after 8 hr; format: ADME, organism-based, Neoplasm; settings: read-out: Drug uptake
[11] = Drug uptake in NCr-M nude mouse plasma xenografted with human AN3CA cells at 100 mg/kg, po after 8 hr; format: ADME, organism-based
[12] = test system: Mus musculus; experiment: In vivo inhibition of AKT1 phosphorylation in human AN3CA cells xenografted in NCr-M nude mouse assessed as inhibition of PRAS40 phosphorylation at Thr246 at 200 mg/kg, po after 8 hrs by Western blot analysis; format: functional; settings: AN3-CA
[13] = test system: Mus musculus; experiment: In vivo inhibition of AKT1 phosphorylation in human AN3CA cells xenografted in NCr-M nude mouse assessed as inhibition of PRAS40 phosphorylation at Thr246 at 100 mg/kg, po after 8 hrs by Western blot analysis; format: functional; settings: AN3-CA
[14] = Oral bioavailability in monkey at 10 mg/kg administered as single dose; format: ADME, organism-based, Macaca mulatta; settings: rhesus monkey, in vivo
[15] = test system: Mus musculus; experiment: In vivo inhibition of AKT1 phosphorylation at Thr308 in human AN3CA cells xenografted in NCr-M nude mouse at 200 mg/kg, po after 1 hr by Western blot analysis; format: functional; settings: AN3-CA
[16] = test system: Mus musculus; experiment: In vivo inhibition of AKT1 phosphorylation at Thr308 in human AN3CA cells xenografted in NCr-M nude mouse at 100 mg/kg, po after 1 hr by Western blot analysis; format: functional; settings: AN3-CA
[17] = test system: Mus musculus; experiment: In vivo inhibition of AKT1 phosphorylation in human AN3CA cells xenografted in NCr-M nude mouse assessed as inhibition of PRAS40 phosphorylation at Thr246 at 100 mg/kg, po after 1 hr by Western blot analysis; format: functional; settings: AN3-CA
[18] = Tmax in monkey at 10 mg/kg administered as single dose; format: ADME, organism-based, Macaca mulatta; settings: rhesus monkey, in vivo
[19] = test system: Mus musculus; experiment: In vivo inhibition of AKT1 phosphorylation at Ser473 in human AN3CA cells xenografted in NCr-M nude mouse at 200 mg/kg, po after 1 hr by Western blot analysis; format: functional; settings: AN3-CA
[20] = test system: Mus musculus; experiment: In vivo inhibition of AKT1 phosphorylation at Thr308 in human AN3CA cells xenografted in NCr-M nude mouse at 200 mg/kg, po after 8 hrs by Western blot analysis; format: functional; settings: AN3-CA
[21] = Drug uptake in NCr-M nude mouse tumor xenografted with human AN3CA cells at 100 mg/kg, po after 8 hr; format: ADME, organism-based, Neoplasm; settings: read-out: Drug uptake
[22] = test system: Mus musculus; experiment: In vivo inhibition of AKT1 phosphorylation in human AN3CA cells xenografted in NCr-M nude mouse assessed as inhibition of PRAS40 phosphorylation at Thr246 at 200 mg/kg, po after 1 hr by Western blot analysis; format: functional; settings: AN3-CA
[23] = Cmax in rat at 5 mg/kg administered as single dose; format: ADME, organism-based; set-up: dose 5 mg/kg; settings: in vivo
[24] = test system: Mus musculus; experiment: In vivo inhibition of AKT1 phosphorylation at Ser473 in human AN3CA cells xenografted in NCr-M nude mouse at 100 mg/kg, po after 1 hr by Western blot analysis; format: functional; settings: AN3-CA
[25] = AUC (infinity) in rat at 5 mg/kg administered as single dose; format: ADME, organism-based; set-up: dose 5 mg/kg, time infinity; settings: in vivo
[26] = AUC (infinity) in monkey at 10 mg/kg administered as single dose; format: ADME, organism-based, Macaca mulatta; set-up: dose 10 mg/kg, time infinity; settings: rhesus monkey, in vivo
[27] = Drug uptake in NCr-M nude mouse plasma xenografted with human AN3CA cells at 100 mg/kg, po after 1 hr; format: ADME, organism-based
[28] = Drug uptake in NCr-M nude mouse plasma xenografted with human AN3CA cells at 200 mg/kg, po after 1 hr; format: ADME, organism-based
[29] = Drug uptake in NCr-M nude mouse tumor xenografted with human AN3CA cells at 100 mg/kg, po after 1 hr; format: ADME, organism-based, Neoplasm; settings: read-out: Drug uptake
[30] = test system: Mus musculus; experiment: In vivo inhibition of AKT1 phosphorylation at Thr308 in human AN3CA cells xenografted in NCr-M nude mouse at 100 mg/kg, po after 8 hrs by Western blot analysis; format: functional; settings: AN3-CA
[31] = Oral bioavailability in rat at 5 mg/kg administered as single dose; format: ADME, organism-based; settings: in vivo
[32] = Half life in monkey at 10 mg/kg administered as single dose; format: ADME, organism-based, Macaca mulatta; settings: rhesus monkey, in vivo
[33] = Oral bioavailability in mouse at 100 mg/kg; format: ADME, organism-based; settings: in vivo
[34] = Drug uptake in NCr-M nude mouse plasma xenografted with human AN3CA cells at 200 mg/kg, po after 8 hr; format: ADME, organism-based
[35] = Half life in rat at 5 mg/kg administered as single dose; format: ADME, organism-based; settings: in vivo
[36] = Tmax in rat at 5 mg/kg administered as single dose; format: ADME, organism-based; settings: in vivo
[37] = Drug uptake in NCr-M nude mouse tumor xenografted with human AN3CA cells at 200 mg/kg, po after 1 hr; format: ADME, organism-based, Neoplasm; settings: read-out: Drug uptake
[38] = test system: Mus musculus; experiment: In vivo inhibition of AKT1 phosphorylation at Ser473 in human AN3CA cells xenografted in NCr-M nude mouse at 200 mg/kg, po after 8 hrs by Western blot analysis; format: functional; settings: AN3-CA
[39] = Cmax in monkey at 10 mg/kg administered as single dose po; format: ADME, organism-based, Macaca mulatta; set-up: dose 10 mg/kg, route oral; settings: rhesus monkey, in vivo

Sequence of RAC-gamma serine/threonine-protein kinase (Q9Y243 whole entry): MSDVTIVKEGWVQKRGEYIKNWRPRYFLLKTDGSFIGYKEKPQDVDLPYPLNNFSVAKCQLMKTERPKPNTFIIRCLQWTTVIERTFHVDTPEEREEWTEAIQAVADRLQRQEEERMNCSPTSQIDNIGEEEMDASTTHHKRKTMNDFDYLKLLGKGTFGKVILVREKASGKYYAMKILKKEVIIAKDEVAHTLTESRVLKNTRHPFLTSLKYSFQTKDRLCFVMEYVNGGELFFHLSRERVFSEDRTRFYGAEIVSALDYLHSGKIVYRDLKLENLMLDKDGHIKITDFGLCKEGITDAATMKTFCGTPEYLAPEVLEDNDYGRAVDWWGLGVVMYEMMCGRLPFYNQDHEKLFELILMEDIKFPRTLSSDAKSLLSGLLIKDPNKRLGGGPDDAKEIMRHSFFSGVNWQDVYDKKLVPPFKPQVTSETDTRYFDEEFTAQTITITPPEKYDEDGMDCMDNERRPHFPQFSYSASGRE

Structure (SMILES): CC(C)(C)c1ccc(-n2c(-c3cccnc3N)nc3cccnc32)cc1
IC50 [1]: 71 µM | IC50 [2]: 16 µM

Structure (SMILES): Cl.NCc1ccc(-n2c(-c3cccnc3N)nc3ccc(-c4ccccc4)nc32)cc1
half-life at 1 µM [3]: 39 min | solubility [4]: 188 µM

Structure (SMILES): CC(=O)Nc1cccc(-c2ccc3nc(-c4cccnc4N)n(-c4ccc(C5(N)CCC5)cc4)c3n2)c1.Cl
half-life at 1 µM [3]: > 60 min | half-life at 1 µM [5]: > 60 min | half-life at 1 µM [6]: > 60 min | half-life at 1 µM [7]: > 60 min | half-life at 1 µM [8]: 50 min | solubility [4]: 160 µM

Structure (SMILES): Cl.Nc1ncccc1-c1nc2ccc(-c3ccccc3)nc2n1-c1ccc(C2(N)CCC2)cc1
inhibition in vivo at 100 mg/kg [9]: 98.6% | concentration at 8 h [10]: 27.4 µM | concentration at 8 h [11]: 0.26 µM | inhibition in vivo at 200 mg/kg [12]: 42.5% | inhibition in vivo at 100 mg/kg [13]: 35.9% | bioavailability [14]: 49% | inhibition in vivo at 200 mg/kg [15]: 93.3% | half-life at 1 µM [3]: 55 min | inhibition in vivo at 100 mg/kg [16]: 95% | inhibition in vivo at 100 mg/kg [17]: 57.7% | Tmax [18]: 258 min | inhibition in vivo at 200 mg/kg [19]: 99.2% | inhibition in vivo at 200 mg/kg [20]: 90.8% | concentration at 8 h [21]: 9.6 µM | inhibition in vivo at 200 mg/kg [22]: 50.5% | Cmax [23]: 198 ng/mL | inhibition in vivo at 100 mg/kg [24]: 99.2% | AUC(0-inf) [25]: 5500 ng·h/mL | AUC(0-inf) [26]: 2960 ng·h/mL | concentration at 1 h [27]: 2.1 µM | concentration at 1 h [28]: 2.7 µM | concentration at 1 h [29]: 21 µM | inhibition in vivo at 100 mg/kg [30]: 96.3% | half-life at 1 µM [5]: 17 min | half-life at 1 µM [6]: 18 min | bioavailability [31]: 62% | half-life [32]: 420 min | bioavailability [33]: 23% | concentration at 8 h [34]: 1 µM | half-life [35]: 1020 min | half-life at 1 µM [7]: 31 min | half-life at 1 µM [8]: 28 min | Tmax [36]: 480 min | concentration at 1 h [37]: 35.8 µM | solubility [4]: 170 µM | inhibition in vivo at 200 mg/kg [38]: 99.7% | Cmax [39]: 258 ng/mL

Structure (SMILES): Cc1ccc(-n2c(-c3cccnc3N)nc3cccnc32)cc1
IC50 [1]: > 100 µM | IC50 [2]: 20 µM

Structure (SMILES): Cl.Nc1ncccc1-c1nc2ccc(-c3cccnc3)nc2n1-c1ccc(C2(N)CCC2)cc1
half-life at 1 µM [3]: > 30 min | half-life at 1 µM [5]: 31 min | half-life at 1 µM [6]: 37 min | half-life at 1 µM [7]: > 30 min | half-life at 1 µM [8]: 21 min | solubility [4]: 178 µM

Structure (SMILES): CC(=O)Nc1cccc(-c2ccc3nc(-c4cccnc4N)n(-c4ccc(CN)cc4)c3n2)c1.Cl
half-life at 1 µM [5]: > 60 min | half-life at 1 µM [6]: 45 min | half-life at 1 µM [7]: > 60 min | half-life at 1 µM [8]: > 60 min | solubility [4]: ≥ 200 µM

Structure (SMILES): Cl.Nc1cccc(-c2ccc3nc(-c4cccnc4N)n(-c4ccc(C5(N)CCC5)cc4)c3n2)c1
half-life at 1 µM [3]: > 60 min | half-life at 1 µM [5]: > 60 min | half-life at 1 µM [6]: > 60 min | half-life at 1 µM [7]: > 60 min | half-life at 1 µM [8]: > 60 min | solubility [4]: 138 µM

The next lines start with the values.

IC50 [1]: > 100 µM | IC50 [2]: 9.3 µM
Structure (SMILES): NCc1ccc(-n2c(-c3cccnc3N)nc3cccnc32)cc1

IC50 [1]: > 10 µM | IC50 [2]: 3.5 µM
Structure (SMILES): NCc1ccc(-n2c(-c3cccnc3N)nc3cc(-c4cccnc4)cnc32)cc1

IC50 [1]: > 10 µM
Structure (SMILES): Cc1cnc2c(c1)nc(-c1cccnc1N)n2-c1ccc(CN)cc1
